Patent US20140107021A1 (priority 2010, published 2014)
Where two headings read alike, the source gives them in different places. Peptide text beside a SMILES is read from it.

Legend:
GLP-1 receptor = biological target: T1, GLP-1 receptor (Homo sapiens, UniProt P43220); test: cAMP induction at the GLP-1 receptor (agonist activity), firefly luciferase reporter assay in HEK293 cells; assay type: cell-based; conditions: for GLP-1R relative activity: relative to standard
T1 construct: expressed in transfected cells; host or cells: HEK293
Source text: (§1) HEK293 cells co-transfected with the receptor and luciferase gene linked to a cAMP responsive element were employed for the bioassay.
(§2) All EC50s and IC50s are reported in the following examples in nM, unless indicated otherwise.

glucagon receptor [1] = biological target: T2, glucagon receptor (Homo sapiens, UniProt P47871); test: cell-based
Source text: as §1, §2

glucagon receptor [2] = biological target: T2, glucagon receptor; test: cAMP induction at the glucagon receptor (agonist activity), luciferase reporter assay in HEK293 cells; assay type: cell-based; design: expressed in transfected cells; host or cells: HEK293; conditions: for GR relative activity: relative to standard
Source text: as §1, §2

GIP receptor = biological target: T3, GIP receptor (Homo sapiens, UniProt P48546); test: cAMP induction at the GIP receptor (agonist activity), luciferase reporter assay in HEK293 cells; assay type: cell-based; conditions: Table 4; for EC50: read-out: GIPR EC50; for GIPR relative activity: relative to standard
T3 construct: expressed in transfected cells; host or cells: HEK293
T3 sequence (P48546 22-466): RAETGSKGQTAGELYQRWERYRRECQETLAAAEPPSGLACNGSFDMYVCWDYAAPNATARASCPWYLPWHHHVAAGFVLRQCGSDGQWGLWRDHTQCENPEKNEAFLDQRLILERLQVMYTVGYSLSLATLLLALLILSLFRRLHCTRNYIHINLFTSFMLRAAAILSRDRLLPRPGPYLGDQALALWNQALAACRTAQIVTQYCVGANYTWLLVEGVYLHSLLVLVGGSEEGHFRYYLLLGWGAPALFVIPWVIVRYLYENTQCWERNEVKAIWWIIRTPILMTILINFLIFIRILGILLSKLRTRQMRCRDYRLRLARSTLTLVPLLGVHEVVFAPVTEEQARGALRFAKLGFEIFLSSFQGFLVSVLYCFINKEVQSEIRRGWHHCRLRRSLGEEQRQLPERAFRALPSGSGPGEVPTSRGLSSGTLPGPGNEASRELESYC
Source text: as §1, §2

[3] = Glu ICso (nM), Table A, Glu = glucagon

T2 sequence (P47871 26-477): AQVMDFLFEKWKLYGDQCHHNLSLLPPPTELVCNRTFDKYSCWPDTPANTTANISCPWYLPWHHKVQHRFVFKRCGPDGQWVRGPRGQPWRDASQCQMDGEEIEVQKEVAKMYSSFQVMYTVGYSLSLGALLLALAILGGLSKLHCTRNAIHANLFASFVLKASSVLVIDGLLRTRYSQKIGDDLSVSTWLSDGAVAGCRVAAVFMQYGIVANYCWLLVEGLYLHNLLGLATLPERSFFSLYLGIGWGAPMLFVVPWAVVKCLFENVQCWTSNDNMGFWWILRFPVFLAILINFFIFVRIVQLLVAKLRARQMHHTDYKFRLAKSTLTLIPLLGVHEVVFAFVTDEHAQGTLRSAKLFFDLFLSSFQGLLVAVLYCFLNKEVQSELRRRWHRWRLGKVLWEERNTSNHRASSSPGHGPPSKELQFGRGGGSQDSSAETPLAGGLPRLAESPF
T1 sequence (P43220 24-463): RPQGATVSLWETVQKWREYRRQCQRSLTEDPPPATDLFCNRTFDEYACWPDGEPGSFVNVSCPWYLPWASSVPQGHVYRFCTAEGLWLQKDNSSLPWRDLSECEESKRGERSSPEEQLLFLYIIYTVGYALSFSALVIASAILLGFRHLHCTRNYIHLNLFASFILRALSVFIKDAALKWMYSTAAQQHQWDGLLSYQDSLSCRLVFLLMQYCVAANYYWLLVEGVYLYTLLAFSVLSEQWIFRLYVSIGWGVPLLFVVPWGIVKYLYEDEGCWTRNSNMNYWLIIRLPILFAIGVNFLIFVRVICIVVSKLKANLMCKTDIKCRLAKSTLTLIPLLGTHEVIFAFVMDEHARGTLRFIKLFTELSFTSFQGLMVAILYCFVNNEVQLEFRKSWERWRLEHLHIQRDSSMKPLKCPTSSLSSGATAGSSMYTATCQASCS

| EC50 (glucagon receptor [2]; Table E, read-out: cAMP Induction EC50) [nM] | Structure (SMILES) | EC50 (GLP-1 receptor; GLP-1 EC50 (nM), Table C) [nM] | EC50 (GLP-1 receptor; GLP-1 ECso (nM), Table A) [nM] | IC50 (glucagon receptor [1]; [3]) [nM] | IC50 (glucagon receptor [1]; Glucagon IC50 (nM), Table C) [nM] | EC50 (GLP-1 receptor; Table 4, read-out: GLP-1R EC50) [nM] | GLP-1R relative activity (GLP-1 receptor; Table 4) [%] | EC50 (GIP receptor) [nM] | GIPR relative activity (GIP receptor) [%] | EC50 (glucagon receptor [2]; Table 4, read-out: GR EC50) [nM] | GR relative activity (glucagon receptor [2]; Table 4) [%] |
| --- | --- | --- | --- | --- | --- | --- | --- | --- | --- | --- | --- |
| – | CSCC[C@H](NC(=O)[C@H](CC(C)C)NC(=O)[C@H](Cc1c[nH]c2ccccc12)NC(=O)[C@H](CCC(N)=O)NC(=O)[C@@H](NC(=O)[C@H](Cc1ccccc1)NC(=O)[C@H](CC(=O)O)NC(=O)[C@@H]1CCCCNC(=O)CC[C@H](NC(=O)[C@H](CC(=O)O)NC(=O)[C@H](CC(C)C)NC(=O)[C@H](Cc2ccc(O)cc2)NC(=O)[C@H](CCCCN)NC(=O)[C@H](CO)NC(=O)[C@H](Cc2ccc(O)cc2)NC(=O)[C@H](CCC(=O)O)NC(=O)[C@H](CO)NC(=O)[C@@H](NC(=O)[C@@H](O)Cc2ccccc2)[C@@H](C)O)C(=O)N[C@@H](CCCNC(=N)N)C(=O)N[C@@H](CCCNC(=N)N)C(=O)N[C@@H](C)C(=O)N1)C(C)C)C(=O)N[C@@H](CC(N)=O)C(=O)N[C@H](C(=O)NCC(=O)N1CCC[C@H]1C(=O)N[C@@H](CO)C(=O)N[C@@H](CO)C(=O)NCC(=O)N[C@@H](C)C(=O)N1CCC[C@H]1C(=O)N1CCC[C@H]1C(=O)N1CCC[C@H]1C(=O)N[C@@H](CO)C(N)=O)[C@@H](C)O [[PLA6, E9, E16K20(Lactam)]] | 20 | 20 | 20 | 20 | – | – | – | – | – | – |
| – | CSCC[C@H](NC(=O)[C@H](CC(C)C)NC(=O)[C@H](Cc1c[nH]c2ccccc12)NC(=O)[C@H](CCC(N)=O)NC(=O)[C@@H](NC(=O)[C@H](Cc1ccccc1)NC(=O)[C@H](CC(=O)O)NC(=O)[C@H](CCC(N)=O)NC(=O)[C@H](C)NC(=O)[C@H](CCCNC(=N)N)NC(=O)[C@H](CCCNC(=N)N)NC(=O)[C@@H]1CCC(=O)NCCCC[C@H](NC(=O)[C@H](CO)NC(=O)[C@H](Cc2ccc(O)cc2)NC(=O)[C@H](CCC(=O)O)NC(=O)[C@H](CO)NC(=O)[C@@H](NC(=O)[C@@H](O)Cc2ccccc2)[C@@H](C)O)C(=O)N[C@@H](Cc2ccc(O)cc2)C(=O)N[C@@H](CC(C)C)C(=O)N[C@@H](CC(=O)O)C(=O)N1)C(C)C)C(=O)N[C@@H](CC(N)=O)C(=O)N[C@H](C(=O)NCC(=O)N1CCC[C@H]1C(=O)N[C@@H](CO)C(=O)N[C@@H](CO)C(=O)NCC(=O)N[C@@H](C)C(=O)N1CCC[C@H]1C(=O)N1CCC[C@H]1C(=O)N1CCC[C@H]1C(=O)N[C@@H](CO)C(N)=O)[C@@H](C)O [[PLA6, E9, K12E16(Lactam)] (HELM PEPTIDE1{[O=C([C@@H](O)Cc1ccccc1)[*:2]].T.S.E.Y.S.K.Y.L.D.E.R.R.A.Q.D.F.V.Q.W.L.M.N.T.G.P.S.S.G.A.P.P.P.S.[am]}$PEPTIDE1,PEPTIDE1,7:R3-11:R3$$$V2.0) | 6 | 6 | 72 | – | – | – | – | – | – | – |
| 1610 ± 1130 | CC(C)C[C@H](NC(=O)[C@H](Cc1ccc(O)cc1)NC(=O)[C@H](CCCCN)NC(=O)[C@H](CO)NC(=O)[C@H](Cc1ccc(O)cc1)NC(=O)[C@H](CCS(=O)(=O)O)NC(=O)[C@H](CO)NC(=O)[C@@H](NC(=O)[C@H](Cc1ccccc1)NC(=O)[C@@H](NC(=O)[C@H](CC(C)C)NC(=O)[C@H](CCC(N)=O)NC(=O)[C@@H](N)CO)[C@@H](C)O)[C@@H](C)O)C(=O)N[C@@H](CC(=O)O)C(=O)N[C@@H](CO)C(=O)N[C@@H](CCCNC(=N)N)C(=O)N[C@@H](CCCNC(=N)N)C(=O)N[C@@H](C)C(=O)N[C@@H](CCC(N)=O)C(=O)N[C@@H](CC(=O)O)C(=O)N[C@@H](Cc1ccccc1)C(=O)N[C@H](C(=O)N[C@@H](CCC(N)=O)C(=O)N[C@@H](Cc1ccccc1)C(=O)N[C@@H](CC(C)C)C(=O)N[C@@H](CC(C)C)C(=O)N[C@@H](CC(N)=O)C(=O)N[C@H](C(N)=O)[C@@H](C)O)C(C)C [[desHis^1, Leu^4, hCys^9(SO3—), Phe^25, Leu^27]Glucagon-NH2] (HELM PEPTIDE1{S.Q.L.T.F.T.S.[O=C([C@H](CCS(=O)(=O)O)N[*:1])[*:2]].Y.S.K.Y.L.D.S.R.R.A.Q.D.F.V.Q.F.L.L.N.T.[am]}$$$$V2.0) | – | – | – | – | – | – | – | – | – | – |
| – | CC[C@H](C)[C@H](NC(=O)[C@H](CO)NC(=O)[C@H](Cc1ccc(O)cc1)NC(=O)[C@H](CC(=O)O)NC(=O)[C@H](CO)NC(=O)[C@@H](NC(=O)[C@H](Cc1ccccc1)NC(=O)[C@@H](NC(=O)CNC(=O)[C@H](CCC(=O)O)NC(=O)C(C)(C)NC(=O)[C@@H](N)Cc1ccc(O)cc1)[C@@H](C)O)[C@@H](C)O)C(=O)N[C@@H](Cc1ccc(O)cc1)C(=O)N[C@@H](CC(C)C)C(=O)N[C@@H](CC(=O)O)C(=O)N[C@@H](CCCCN)C(=O)N[C@@H](CCC(N)=O)C(=O)N[C@@H](C)C(=O)N[C@@H](C)C(=O)NC(C)(C)C(=O)N[C@@H](CCC(=O)O)C(=O)N[C@@H](Cc1ccccc1)C(=O)N[C@H](C(=O)N[C@@H](CC(N)=O)C(=O)N[C@@H](Cc1c[nH]c2ccccc12)C(=O)N[C@@H](CC(C)C)C(=O)N[C@@H](CC(C)C)C(=O)N[C@@H](C)C(=O)NCC(=O)NCC(=O)N1CCC[C@H]1C(=O)N[C@@H](CO)C(=O)N[C@@H](CO)C(=O)NCC(=O)N[C@@H](C)C(=O)N1CCC[C@H]1C(=O)N1CCC[C@H]1C(=O)N1CCC[C@H]1C(=O)N[C@@H](CO)C(N)=O)C(C)C [mt-395] | – | – | – | – | 0.0076 | 321.55 | 0.0025 | 537.45 | 3.41 | 0.87 |
| – | CC[C@H](C)[C@H](NC(=O)[C@H](CO)NC(=O)[C@H](Cc1ccc(O)cc1)NC(=O)[C@H](CC(=O)O)NC(=O)[C@H](CO)NC(=O)[C@@H](NC(=O)[C@H](Cc1ccccc1)NC(=O)[C@@H](NC(=O)CNC(=O)[C@H](CCC(=O)O)NC(=O)C(C)(C)NC(=O)[C@@H](N)Cc1ccc(O)cc1)[C@@H](C)O)[C@@H](C)O)C(=O)N[C@@H](Cc1ccc(O)cc1)C(=O)N[C@@H](CC(C)C)C(=O)N[C@@H](CC(=O)O)C(=O)N[C@@H](CCCCN)C(=O)N[C@@H](CCC(N)=O)C(=O)N[C@@H](C)C(=O)N[C@@H](C)C(=O)NC(C)(C)C(=O)N[C@@H](CCC(=O)O)C(=O)N[C@@H](Cc1ccccc1)C(=O)N[C@H](C(=O)N[C@@H](CC(N)=O)C(=O)N[C@@H](Cc1c[nH]c2ccccc12)C(=O)N[C@@H](CC(C)C)C(=O)N[C@@H](CC(C)C)C(=O)N[C@@H](C)C(=O)NCC(=O)NCC(=O)N1CCC[C@H]1C(=O)N[C@@H](CO)C(=O)N[C@@H](CO)C(=O)NCC(=O)N[C@@H](C)C(=O)N1CCC[C@H]1C(=O)N1CCC[C@H]1C(=O)N1CCC[C@H]1C(=O)N[C@@H](CO)C(=O)N[C@@H](CCC(=O)O)C(N)=O)C(C)C [mt-396] | – | – | – | – | 0.0093 | 262.27 | 0.0034 | 402.69 | 2.9 | 1.03 |
